# According to patent US20120009240A1, “Films for Delivery of a Therapeutic Agent” (priority 2010, published 2012):
# Where a name gives a salt, the structure may show the parent alone.
# Experiment: Saturation and payload limits for dip coating a polyester mesh (Parietex monofilament mesh) with bupivacaine HCl solution (FIG. 8)
# Format: physicochemical
# Details: polyester mesh without a polymer film
# Source text: Further, it is believed that spraying films on a medical device (e.g., mesh) compared to other conventional methods, such as dip coating, provides increased loading of the therapeutic agent.
# More particularly FIG. 8 illustrates the loading limits for a polyester mesh (Parietex™ monofilament mesh) without a polymer film.
smiles,measurement,setting,value
CCCCN1CCCCC1C(=O)Nc1c(C)cccc1C (centres unmarked) [bupivacaine hydrochloride],saturation and payload limits for dip coating,solution in MeOH,12 % w/v
same,saturation and payload limits for dip coating,solution in water,5 % w/v
